Test results as given in PMC6934184, “Selective DNA-PKcs inhibition extends the therapeutic index of localized radiotherapy and chemotherapy” (The Journal of Clinical Investigation, 2019).

Molecular target: T1, CLK4 (Homo sapiens, UniProt Q9HAZ1)
T1 construct: purchased Thermo Fisher Scientific (Life Technologies) SelectScreen
Assay: SelectScreen LanthaScreen
Type: binding
Conditions: read-out: % displacement
Summary of the method: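 SelectScreen broad panel; activity (Z'LYTE, Adapta) plus binding formats. ATP: Km app for CSF1R Z'LYTE; 10 for CAMK1 Adapta. Readout = % per kinase.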

T1 sequence (Q9HAZ1 whole entry): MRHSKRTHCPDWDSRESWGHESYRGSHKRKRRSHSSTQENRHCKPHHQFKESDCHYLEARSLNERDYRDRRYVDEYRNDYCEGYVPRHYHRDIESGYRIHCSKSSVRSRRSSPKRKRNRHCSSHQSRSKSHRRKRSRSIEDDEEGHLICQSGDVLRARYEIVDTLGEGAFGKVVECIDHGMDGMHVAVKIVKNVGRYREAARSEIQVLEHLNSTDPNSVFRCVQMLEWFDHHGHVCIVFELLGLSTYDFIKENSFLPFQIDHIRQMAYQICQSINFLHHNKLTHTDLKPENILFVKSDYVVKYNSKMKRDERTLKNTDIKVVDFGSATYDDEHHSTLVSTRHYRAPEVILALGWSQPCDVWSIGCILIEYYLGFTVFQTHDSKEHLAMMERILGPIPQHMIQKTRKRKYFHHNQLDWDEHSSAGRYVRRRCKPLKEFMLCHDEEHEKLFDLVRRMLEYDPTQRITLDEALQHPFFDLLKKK

## CN(C(=O)CN1CCOCC1)c1ccc2sc3c(-c4cccc5c(=O)cc(N6CC7CCC(C6)O7)oc45)cccc3c2c1 [NU5455]
  inhibition at 1 µM: 1.4%
